The structures appear in SMILES notation.

One may read the DC50 as the midpoint of the concentration-degradation curve. A higher DC50 goes with a less potent degrader. Broadly, the Dmax is the largest share of the target that was removed. Low readings indicate shallow degradation, high ones deep degradation.

In this assay the target is T1, IRAK-4 (Homo sapiens, UniProt Q9NWZ3).
T1 sequence (Q9NWZ3 1-460): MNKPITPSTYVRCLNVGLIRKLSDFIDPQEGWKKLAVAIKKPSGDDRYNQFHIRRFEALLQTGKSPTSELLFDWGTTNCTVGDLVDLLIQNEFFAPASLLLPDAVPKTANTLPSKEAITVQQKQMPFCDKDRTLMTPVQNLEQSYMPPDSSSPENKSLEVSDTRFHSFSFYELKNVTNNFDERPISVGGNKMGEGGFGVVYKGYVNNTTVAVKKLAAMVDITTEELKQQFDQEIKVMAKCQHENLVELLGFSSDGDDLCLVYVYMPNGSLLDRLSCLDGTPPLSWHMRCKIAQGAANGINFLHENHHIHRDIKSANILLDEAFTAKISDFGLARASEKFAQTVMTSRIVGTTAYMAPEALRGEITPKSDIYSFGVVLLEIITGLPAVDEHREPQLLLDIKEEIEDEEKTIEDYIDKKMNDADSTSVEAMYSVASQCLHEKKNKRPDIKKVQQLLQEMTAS
Put plainly: IRAK-4 ELISA, PBMC degradation. In kind it is cell-based. To be noted: treated overnight. Also noted: endogenous in cells; host or cells: PBMC. As for the experimental part: Reagents: Human IRAK-4 Matched Antibody Pair Kit (Abcam ab218182) and ELISA Accessory Pack (Abcam ab210905).
Cell Treatment and Lysis:
1. OCI-Ly10: 200,000 cells are seeded at 1×10^6/ml in 96-well U-bottom plates 200 ul per well, treated with compound the same day. Incubate overnight. 2. PBMC: 800,000 cells are seeded at 2×10^6/ml in 96-well U-bottom deep-well plates, 400 ul per well, treated with compound the same day. Incubate overnight.
Cell lysate is collected and analyzed by ELISA for IRAK-4 levels.
(ELISA stands for enzyme-linked immunosorbent assay.)

Regarding `O=C1CCC(N2C(=O)c3ccc(N4CC(O[C@H]5CC[C@H](n6cc7cc(NC(=O)c8cnn9cccnc89)c(OCC8CC8)cc7n6)CC5)C4)cc3C2=O)C(=O)N1` (stereo partly drawn) [Example 183], the half-maximal degradation concentration (DC50) was in the range of 1 to 5 nM; the Dmax was not below 90%; the “PBMC DC90” value is “B (B represents a DC90 value ≥10.0 nM and <25.0 nM)”.

As to `CN1CC(Oc2cc3nn(C4CCN(CC5CCN(c6ccc7c(c6)C(=O)N(C6CCC(=O)NC6=O)C7=O)CC5)CC4)cc3cc2NC(=O)c2cnn3cccnc23)C1` (stereo not drawn) [Example 152], the 50% degradation concentration (DC50) was not below 10 nM, the Dmax was less than 70% and the “PBMC DC90” value is “D (D represents a DC90 value ≥50 nM)”.

Turning to `O=C1CCC(N2C(=O)c3ccc(N4CC(F)(CN[C@H]5CC[C@H](n6cc7cc(NC(=O)c8cnn9cccnc89)c(OCC8CC8)cc7n6)CC5)C4)cc3C2=O)C(=O)N1` (stereo partly drawn) [Example 351], the DC50 is less than 1 nM, the maximal degradation (Dmax) fell in the range of 80 to 90% and the “PBMC DC90” value is given as “A (A represents a DC90 value <10.0 nM)”.

Turning to `Cn1c(=O)n(C2CCC(=O)NC2=O)c2cccc(N3CCC(CN4CCC(n5cc6cc(NC(=O)c7cnn8cccnc78)c(OCC7CC7)cc6n5)CC4)CC3)c21` (stereo not drawn) [Example 390, N-(6-(cyclopropylmethoxy)-2-(1-((1-(1-(2,6-dioxopiperidin-3-yl)-3-methyl-2-oxo-2,3-dihydro-1H-benzo[d]imidazol-4-yl)piperidin-4-yl)methyl)piperidin-4-yl)-2H-indazol-5-yl)pyrazolo[1,5-a]pyrimidine-3-carboxamide], the 50% degradation concentration (DC50) is less than 1 nM, the Dmax was not below 90% and the “PBMC DC90” value is “A (A represents a DC90 value <10.0 nM)”.

For `COc1cc(N2CC(CN3CCC(N4Cc5cc(NC(=O)c6cnn7cccnc67)c(OC(C)C)nc5C4=O)CC3)C2)cc2c1C(=O)N(C1CCC(=O)NC1=O)C2` (stereo not drawn) [Example 403], the DC50 lay within 1 to 5 nM; the greatest degradation seen (Dmax) was not below 90%; the “PBMC DC90” value is “C (C represents a DC90 value ≥25.0 nM and <50 nM)”.

On to `CC(C)Oc1nc2nn(C3CCN(CC4(F)CN(c5ccc6c(c5)C(=O)N(C5CCC(=O)NC5=O)C6=O)C4)CC3)cc2cc1NC(=O)c1cnn2cccnc12` (stereo not drawn) [Example 219], for which the DC50 was in the range of 5 to 10 nM; the Dmax was in the range of 80 to 90%; the “PBMC DC90” value is “C (C represents a DC90 value ≥25.0 nM and <50 nM)”.

Take `O=C1CCC(N2C(=O)c3ccc(N4CC(N(CC(F)(F)F)C5CCC(n6cc7cc(NC(=O)c8cnn9cccnc89)c(OCC8CC8)cc7n6)CC5)C4)cc3C2=O)C(=O)N1` (stereo not drawn) [Example 327]: the DC50 is not below 10 nM, the Dmax lay within 80 to 90% and the “PBMC DC90” value was “D (D represents a DC90 value ≥50 nM)”.

On to `CC(C)Oc1cc2c(cc1NC(=O)c1cnn3cccnc13)CN([C@H]1CC[C@H](OC3CCN(c4ccc5c(c4)C(=O)N(C4CCC(=O)NC4=O)C5=O)CC3)CC1)C2=O` (stereo partly drawn) [Example 65], for which the DC50 was in the range of 1 to 5 nM, the greatest degradation seen (Dmax) is not below 90% and the “PBMC DC90” value was “A (A represents a DC90 value <10.0 nM)”.

As to `CC(C)(C1CCN(c2ccc3c(c2)C(=O)N(C2CCC(=O)NC2=O)C3=O)CC1)N1CCC(n2cc3cc(NC(=O)c4cnn5cccnc45)c(OCC4CC4)cc3n2)CC1` (stereo not drawn) [Example 230], the DC50 was 1 to 5 nM, the Dmax is not below 90% and the “PBMC DC90” value is reported as “D (D represents a DC90 value ≥50 nM)”.

As to `O=C1CCC(N2C(=O)c3ccc(N4CCO[C@H](CN5CCC(n6cc7cc(NC(=O)c8cnn9cccnc89)c(OCC8CC8)cc7n6)CC5)C4)cc3C2=O)C(=O)N1` (stereo partly drawn) [Example 177], the DC50 was less than 1 nM, the Dmax is not below 90% and the “PBMC DC90” value is “A (A represents a DC90 value <10.0 nM)”.

As to `Cn1c(=O)n(C2CCC(=O)NC2=O)c2cccc(N3CC(CN4CCC(n5cc6cc(NC(=O)c7cnn8cccnc78)c(C7CC7)cc6n5)CC4)C3)c21` (stereo not drawn) [Example 383], the DC50 was less than 1 nM, the Dmax was not below 90% and the “PBMC DC90” value is recorded as “A (A represents a DC90 value <10.0 nM)”.

For `O=C1CCC(N2C(=O)c3ccc(N4CC(F)(CN5CCC(n6cc7cc(NC(=O)c8cnn9ccc(N%10C[C@H]%11C[C@@H]%10CO%11)nc89)c(C(F)F)cc7n6)CC5)C4)cc3C2=O)C(=O)N1` (stereo partly drawn) [Example 410], the DC50 fell in the range of 5 to 10 nM, the Dmax is 80 to 90% and the “PBMC DC90” value was “D (D represents a DC90 value ≥50 nM)”.

Consider `CC(C)Oc1cc2nn(C[C@@H](F)C3CCN(CC4CN(c5ccc6c(c5)C(=O)N(C5CCC(=O)NC5=O)C6=O)C4)CC3)cc2cc1NC(=O)c1cnn2cccnc12` (stereo partly drawn) [Example 415], for which the DC50 was in the range of 1 to 5 nM, the maximal degradation (Dmax) is 80 to 90% and the “PBMC DC90” value is listed as “A (A represents a DC90 value <10.0 nM)”.

In the case of `COc1cc(N2CC(CN3CCC(N4Cc5cc(NC(=O)c6cnn7cccnc67)c(OC(C)C)nc5C4=O)CC3)C2)cc2c1C(=O)N(C1CCC(=O)NC1=O)C2=O` (stereo not drawn) [Example 397, N-(6-(1-((1-(2-(2,6-dioxopiperidin-3-yl)-7-methoxy-1,3-dioxoisoindolin-5-yl)azetidin-3-yl)methyl)piperidin-4-yl)-2-isopropoxy-7-oxo-6,7-dihydro-5H-pyrrolo[3,4-b]ipyridin-3-yl)pyrazolo [1,5-a]pyrimidine-3-carboxamide], the 50% degradation concentration (DC50) is less than 1 nM, the “PBMC DC90” value is “A (A represents a DC90 value <10.0 nM)” and the “PBMC Dmax” value is reported as “A (A represents a Dmax value ≥90)”.

As to `CN(CC1(F)CN(c2ccc3c(c2)C(=O)N(C2CCC(=O)NC2=O)C3=O)C1)[C@H]1CC[C@H](n2cc3cc(NC(=O)c4cnn5cccnc45)c(OCC4CC4)cc3n2)CC1` (stereo partly drawn) [Example 350], the 50% degradation concentration (DC50) is 1 to 5 nM; the greatest degradation seen (Dmax) was 70 to 80%; the “PBMC DC90” value is “B (B represents a DC90 value ≥10.0 nM and <25.0 nM)”.

Take `CC(C)Oc1cc2c(cc1NC(=O)c1cnn3cccnc13)CN(C1CCN(CC3(F)CN(c4ccc(C(=O)NC5CCC(=O)NC5=O)c(F)c4)C3)CC1)C2=O` (stereo not drawn) [Example 297]: the 50% degradation concentration (DC50) was 1 to 5 nM; the greatest degradation seen (Dmax) is not below 90%; the “PBMC DC90” value is “B (B represents a DC90 value ≥10.0 nM and <25.0 nM)”.

As for `CC(C)Oc1cc2nn([C@H]3CC[C@H](N(C)CC4(F)CN(c5ccc6c(c5)C(=O)N(C5CCC(=O)NC5=O)C6=O)C4)CC3)cc2cc1NC(=O)c1cnn2cccnc12` (stereo partly drawn) [Example 347], the DC50 lay within 1 to 5 nM; the greatest degradation seen (Dmax) is 80 to 90%; the “PBMC DC90” value is “B (B represents a DC90 value ≥10.0 nM and <25.0 nM)”.

As for `CC(C)Oc1cc2c(cc1NC(=O)c1cnn3cccnc13)CN(C1CCN(CCN(C)c3ccc4c(c3)C(=O)N(C3CCC(=O)NC3=O)C4=O)CC1)C2=O` (stereo not drawn) [Example 75], the DC50 lay within 1 to 5 nM; the Dmax is not below 90%; the “PBMC DC90” value is “B (B represents a DC90 value ≥10.0 nM and <25.0 nM)”.

As for `O=C1CCC(N2C(=O)c3ccc(N4CC(F)(CN5CCC(n6cc7cc(NC(=O)c8cnn9cccnc89)c(OC8CC8)cc7n6)CC5)C4)cc3C2=O)C(=O)N1` (stereo not drawn) [Example 200], the 50% degradation concentration (DC50) fell in the range of 1 to 5 nM, the Dmax was not below 90% and the “PBMC DC90” value is recorded as “A (A represents a DC90 value <10.0 nM)”.

As for `CC(C)Oc1cc2nn(C3CN(CC4(F)CCN(c5ccc6c(c5)C(=O)N(C5CCC(=O)NC5=O)C6=O)CC4)C3)cc2cc1NC(=O)c1cnn2cccnc12` (stereo not drawn) [Example 194], the DC50 lay in the range of 1 to 5 nM; the Dmax is not below 90%; the “PBMC DC90” value was “C (C represents a DC90 value ≥25.0 nM and <50 nM)”.

In the case of `O=C1CCC(N2C(=O)c3cc(F)c(N4CC(F)(CN5CCC(n6cc7cc(NC(=O)c8cnn9cccnc89)c(OCC8CC8)cc7n6)CC5)C4)cc3C2=O)C(=O)N1` (stereo not drawn) [Example 229], the DC50 was 5 to 10 nM; the Dmax was 80 to 90%; the “PBMC DC90” value is “B (B represents a DC90 value ≥10.0 nM and <25.0 nM)”.

On to `O=C1CCC(N2C(=O)c3ccc(N4CC(N5CCC(N6Cc7cc(NC(=O)c8cnn9cccnc89)c(N8CCOCC8)nc7C6=O)CC5)C4)cc3C2=O)C(=O)N1` (stereo not drawn) [Example 407], for which the 50% degradation concentration (DC50) was less than 1 nM, the Dmax is not below 90% and the “PBMC DC90” value was “A (A represents a DC90 value <10.0 nM)”.

In the case of `CC(C)Oc1cc2c(cc1NC(=O)c1cnn3ccc(N4CCOCC4)nc13)CN(C1CCN(CC3CN(c4ccc5c(c4)C(=O)N(C4CCC(=O)NC4=O)C5=O)C3)CC1)C2=O` (stereo not drawn) [Example 73], the half-maximal degradation concentration (DC50) is 5 to 10 nM, the greatest degradation seen (Dmax) was 70 to 80% and the “PBMC DC90” value is listed as “D (D represents a DC90 value ≥50 nM)”.

In the case of `O=C1CCC(N2C(=O)c3ccc(N4CC(CN5CCC(N6Cc7cc(NC(=O)c8cnn9cccnc89)c(OCC(F)F)cc7C6=O)CC5)C4)cc3C2=O)C(=O)N1` (stereo not drawn) [Example 103], the DC50 is less than 1 nM, the Dmax fell in the range of 80 to 90% and the “PBMC DC90” value was “A (A represents a DC90 value <10.0 nM)”.

As to `COc1cc2nn(C3CCN(CC4(F)CN(c5ccc6c(c5)C(=O)N(C5CCC(=O)NC5=O)C6=O)C4)CC3)cc2cc1NC(=O)c1cnn2ccc(N3CCOCC3)nc12` (stereo not drawn) [Example 236], the DC50 is less than 1 nM, the greatest degradation seen (Dmax) fell in the range of 70 to 80% and the “PBMC DC90” value is listed as “A (A represents a DC90 value <10.0 nM)”.

Values taken from patent publication US20230099344A1, “COMPOUNDS AND METHODS FOR THE TARGETED DEGRADATION OF IRAK-4” (Arvinas Operations, Inc., priority 2021, published 2023).
